What was measured:
[1] = Plasma stability; type: in vitro ADME; conditions: 5 μM, 50% human plasma in PBS, 1 h, 37 °C
[2] = Parallel artificial membrane permeability assay; type: in vitro ADME; conditions: 500 μM in donor, 20 h

SMILES | plasma stability (% remaining) [1] [% remaining] | PAMPA (% flux) [2] [% flux]
O=C(O)c1ccc(OCc2c(-c3c(Cl)cccc3C(F)(F)F)noc2-c2cn[nH]c2)cc1 [Compound 11, 4-((3-(2-Chloro-6-(trifluoromethyl)phenyl)-5-(1H-pyrazol-4-yl)isoxazol-4-yl)methoxy) Benzoic Acid] | 100 | 23.0
O=C(O)c1ccc(NCc2c(-c3c(Cl)cccc3C(F)(F)F)noc2-c2cc[nH]c2)cc1 [Compound 2, 4-(((3-(2-Chloro-6-(trifluoromethyl)phenyl)-5-(1H-pyrrol-3-yl)isoxazol-4-yl)methyl)amino) Benzoic Acid] | 79.1 | 36.1
O=C(O)c1ccc(/C=C/c2c(-c3c(Cl)cccc3C(F)(F)F)noc2-c2cc[nH]c2)cc1 [Compound 6, (E)-4-(2-(3-(2-Chloro-6-(trifluoromethyl)phenyl)-5-(1H-pyrrol-3-yl)isoxazol-4-yl)vinyl) Benzoic Acid] | 59.5 | 40.3
O=C(O)c1ccc(-c2nn(C(=O)c3c(Cl)cccc3C(F)(F)F)c3ccccc23)cc1 [Compound 1, reference compound] | 95.5 | 29.7
O=C(O)c1ccc(OCc2c(-c3c(Cl)cccc3C(F)(F)F)noc2-c2ccc[nH]2)cc1 [Compound 10, 4-((3-(2-Chloro-6-(trifluoromethyl)phenyl)-5-(1H-pyrrol-2-yl)isoxazol-4-yl)methoxy) Benzoic Acid] | 89.5 | 50.5
O=C(O)c1ccc(OCc2c(-c3c(Cl)cccc3C(F)(F)F)noc2-c2cc[nH]c2)cc1 [Compound 3, 4-((3-(2-Chloro-6-(trifluoromethyl)phenyl)-5-(1H-pyrrol-3-yl)isoxazol-4-yl)methoxy) Benzoic Acid] | 74.2 | 40.9
O=C(O)c1ccc(OCc2c(-c3c(Cl)cccc3C(F)(F)F)noc2-c2cc[nH]c2)cc1F [Compound 9, 4-((3-(2-Chloro-6-(trifluoromethyl)phenyl)-5-(1H-pyrrol-3-yl)isoxazol-4-yl)methoxy)-2-fluorobenzoic Acid] | 97.1 | 37.3

Reference: PMC8273893 (Journal of Medicinal Chemistry, 2021)
